The numbers were not newly measured in patent publication US6630178B1, “Composition comprising soy protein, dietary fibres and a phytoestrogen compound and use thereof in the prevention and/or treatment of cardiovascular diseases” (Nutri Pharma Asa, priority 1998, dated 2003), which cites them from elsewhere.

The data set has as its system estrogenic effect. The following applies: estradiol = 100; in vitro.

Each structure is given as a SMILES string.

For the compound `O=c1c(-c2ccc(O)cc2)coc2cc(O)ccc12` [daidzein], the “relative estrogenic potency as compared to estradiol” value is reported as 0.013.
